This assay addresses T1, Prostaglandin G/H synthase 2 (Ovis aries, UniProt P79208).
T1 sequence (P79208 whole entry): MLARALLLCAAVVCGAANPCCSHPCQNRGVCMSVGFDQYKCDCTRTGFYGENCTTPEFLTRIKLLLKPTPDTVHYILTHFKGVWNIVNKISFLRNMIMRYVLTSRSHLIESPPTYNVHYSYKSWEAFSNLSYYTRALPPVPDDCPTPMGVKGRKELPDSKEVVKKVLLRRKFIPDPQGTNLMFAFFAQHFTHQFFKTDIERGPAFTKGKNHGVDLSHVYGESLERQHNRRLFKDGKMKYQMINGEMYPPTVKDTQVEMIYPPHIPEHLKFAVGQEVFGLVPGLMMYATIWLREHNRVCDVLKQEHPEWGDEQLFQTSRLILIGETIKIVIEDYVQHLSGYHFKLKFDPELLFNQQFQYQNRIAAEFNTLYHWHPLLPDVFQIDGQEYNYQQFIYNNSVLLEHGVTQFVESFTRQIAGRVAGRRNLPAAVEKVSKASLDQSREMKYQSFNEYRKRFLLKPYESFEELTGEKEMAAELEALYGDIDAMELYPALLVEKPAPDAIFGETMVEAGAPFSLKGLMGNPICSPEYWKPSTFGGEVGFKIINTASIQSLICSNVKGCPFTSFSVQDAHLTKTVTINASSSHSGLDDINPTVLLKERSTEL
Put plainly: Inhibition of recombinant ovine COX2 catalytic activity using arachidonic acid as substrate preincubated for 5 mins followed by substrate and hemin addition measured after 2 mins by colorimetric method.

For 2 compounds, IC50 results are on record in ChEMBL document CHEMBL4130354 (Eur J Med Chem, 2017).

The structures appear in SMILES notation. pIC50: −log10 of the molar value.

Broadly, the pIC50 is the negative decadic logarithm of the IC50, by convention in mol/L.

Take `Cc1onc(-c2ccc(Cl)o2)c1-c1ccccc1`: the negative-log IC50 (pIC50) was under 4.30.
The figure for `COc1ccc(-c2noc(CC(=O)O)c2-c2ccc(OC)cc2)cc1` [MOFEZOLAC] is under 4.30.
